# pIC50: −log10 of the molar value. Activity calls are given as the source filed them. No cut-off for these calls is given here.
# How the values were obtained:
# [1] = target: Histamine H2 receptor (Homo sapiens) (UniProt P25021); experiment: Inhibition of histamine H2 receptor at 1 uM
# [2] = organism: Homo sapiens; experiment: Inhibition of NMDA receptor at 1 uM
# [3] = Permeability from apical to basolateral side of the Caco-2 cell membrane at 1 uM; type: ADME, cell-based; details: human
# [4] = target: Adenosine receptor A1 (Homo sapiens) (UniProt P30542); experiment: Inhibition of adenosine A1 receptor at 1 uM
# [5] = target: Adenosine receptor A3 (Homo sapiens) (UniProt P0DMS8); experiment: Inhibition of adenosine A3 receptor at 1 uM
# [6] = target: Adrenergic receptor alpha-2 (Homo sapiens) (UniProt P08913+P18825+P18089); experiment: Inhibition of adrenergic a2 receptor at 1 uM; type: protein assay
# [7] = target: Beta-1 adrenergic receptor (Homo sapiens) (UniProt P08588); experiment: Inhibition of adrenergic b1 receptor at 1 uM
# [8] = organism: Homo sapiens; experiment: Inhibition of central benzodiazepine receptor at 1 uM
# [9] = target: B1 bradykinin receptor (Homo sapiens) (UniProt P46663); experiment: Inhibition of bradykinin B1 receptor at 1 uM
# [10] = target: B2 bradykinin receptor (Homo sapiens) (UniProt P30411); experiment: Inhibition of bradykinin B2 receptor at 1 uM
# [11] = target: D(1A) dopamine receptor (Homo sapiens) (UniProt P21728); experiment: Inhibition of dopamine D1 receptor at 1 uM
# [12] = target: D(4) dopamine receptor (Homo sapiens) (UniProt P21917); experiment: Inhibition of dopamine D4 receptor at 1 uM
# [13] = target: 5-hydroxytryptamine receptor 2A (Homo sapiens) (UniProt P28223); experiment: Inhibition of 5HT2A receptor at 1 uM
# [14] = target: Serotonin 3 (5-HT3) receptor (Homo sapiens) (UniProt P46098+A5X5Y0+O95264+Q70Z44+Q8WXA8); experiment: Inhibition of 5HT3 receptor at 1 uM; type: protein-complex assay
# [15] = target: 5-hydroxytryptamine receptor 4 (Homo sapiens) (UniProt Q13639); experiment: Inhibition of 5HT4 receptor at 1 uM
# [16] = target: 5-hydroxytryptamine receptor 7 (Homo sapiens) (UniProt P34969); experiment: Inhibition of 5HT7 receptor at 1 uM
# [17] = target: Muscarinic acetylcholine receptor M2 (Homo sapiens) (UniProt P08172); experiment: Inhibition of muscarinic M2 receptor at 1 uM
# [18] = target: Platelet-activating factor receptor (Homo sapiens) (UniProt P25105); experiment: Inhibition of platelet activating factor receptor at 1 uM
# [19] = target: Glucocorticoid receptor (Homo sapiens) (UniProt P04150); experiment: Inhibition of glucocorticoid receptor at 1 uM
# [20] = organism: Homo sapiens; experiment: Inhibition of IKr potassium channel at 1 uM
# [21] = Intrinsic clearance in dog microsomes; type: ADME, Canis lupus familiaris, Liver, Microsome
# [22] = Metabolic stability in human liver microsome at 0.5 uM; type: ADME; details: liver microsomes
# [23] = test system: CYP3A4; experiment: Metabolic stability in human liver microsome at 0.5 uM in presence of 1 uM CYP3A4 inhibitor ketoconazole; type: ADME; details: liver microsomes, with 1 uM ketoconazole (CYP3A4 inhibitor)
# [24] = test system: CYP2C9; experiment: Metabolic stability in human liver microsome at 0.5 uM in presence of 5 uM CYP2C9 inhibitor sulfaphenazole; type: ADME; details: liver microsomes, with 5 uM sulfaphenazole (CYP2C9 inhibitor)
# [25] = test system: CYP2C19; experiment: Metabolic stability in human liver microsome at 0.5 uM in presence of 200 uM CYP2C19 inhibitor (S)-mephenytoin; type: ADME; details: liver microsomes, with 200 uM (S)-mephenytoin (CYP2C19 inhibitor)
# [26] = test system: CYP1A2; experiment: Metabolic stability in human liver microsome at 0.5 uM in presence of 5 uM CYP1A2 inhibitor furafylline; type: ADME; details: liver microsomes, with 5 uM furafylline (CYP1A2 inhibitor)
# [27] = test system: Plasma; experiment: Percentage unbound ligand in rat blood at 1 uM; type: ADME, cell-free
# [28] = test system: Plasma; experiment: Percentage unbound ligand in dog blood at 0.2 uM; type: ADME, cell-free, Canis lupus familiaris
# [29] = Ratio of drug level in blood to plasma in rat; type: ADME, cell-free; details: blood and plasma, read-out: BPR
# [30] = Ratio of drug level in blood to plasma in dog; type: ADME, cell-free, Canis lupus familiaris; details: blood and plasma, read-out: BPR
# [31] = organism: Mus musculus; experiment: Inhibition of intestinal MTP in mouse assessed as inhibition of intestinal fat absorption; type: functional
# [32] = organism: Mus musculus; experiment: Inhibition of hepatic MTP in mouse assessed as reduction of triglyceride; type: functional
# [33] = Plasma clearance in Beagle dog at 0.5 mg/kg, iv; type: ADME, organism-based, Canis lupus familiaris; parameters: dose 0.5 mg/kg, route intravenous
# [34] = Plasma clearance in monkey at 0.5 mg/kg, iv; type: ADME, organism-based, Macaca mulatta; parameters: dose 0.5 mg/kg, route intravenous; details: rhesus monkey
# [35] = Volume of distribution at steady state in rat at 1 mg/kg, iv; type: ADME, organism-based; parameters: dose 1 mg/kg, route intravenous; details: in vivo, read-out: Vdss
# [36] = Volume of distribution at steady state in rat at 5 mg/kg, iv; type: ADME, organism-based; parameters: dose 5 mg/kg, route intravenous; details: in vivo, read-out: Vdss
# [37] = Volume of distribution at steady state in Beagle dog at 1 mg/kg, iv; type: ADME, organism-based, Canis lupus familiaris; parameters: dose 1 mg/kg, route intravenous; details: in vivo, read-out: Vdss
# [38] = Half life in rat at 1 mg/kg, iv; type: ADME, organism-based; parameters: dose 1 mg/kg, route intravenous; details: in vivo
# [39] = AUC (0 to t) in rat at 0.3 mg/kg, iv; type: ADME, organism-based; parameters: dose 0.3 mg/kg, route intravenous; details: plasma
# [40] = AUC (0 to infinity) in rat at 0.3 mg/kg, iv; type: ADME, organism-based; parameters: time infinity, dose 0.3 mg/kg, route intravenous; details: plasma
# [41] = AUC (0 to infinity) in rat at 1 mg/kg, iv; type: ADME, organism-based; parameters: time infinity, dose 1 mg/kg, route intravenous; details: plasma
# [42] = AUC (0 to infinity) in portal cannulated Beagle dog at 1 mg/kg, iv; type: ADME, organism-based, Canis lupus familiaris; parameters: time infinity, dose 1 mg/kg, route intravenous; details: plasma
# [43] = Half life in Beagle dog at 5 mg/kg, po; type: ADME, organism-based, Canis lupus familiaris; parameters: dose 5 mg/kg, route oral; details: in vivo
# [44] = AUC (0 to infinity) in rat at 3 mg/kg, po; type: ADME, organism-based; parameters: time infinity, dose 3 mg/kg, route oral; details: plasma
# [45] = AUC (0 to infinity) in Beagle dog at 0.5 mg/kg, po; type: ADME, organism-based, Canis lupus familiaris; parameters: time infinity, dose 0.5 mg/kg, route oral; details: plasma
# [46] = Cmax in rat at 30 mg/kg, po after 2.8 hrs; type: ADME, organism-based; parameters: dose 30 mg/kg, route oral; details: in vivo
# [47] = Cmax in Beagle dog at 0.5 mg/kg, po; type: ADME, organism-based, Canis lupus familiaris; parameters: dose 0.5 mg/kg, route oral; details: in vivo
# [48] = Tmax in rat at 3 mg/kg, po; type: ADME, organism-based; parameters: dose 3 mg/kg, route oral; details: in vivo
# [49] = Tmax in rat at 30 mg/kg, po; type: ADME, organism-based; parameters: dose 30 mg/kg, route oral; details: in vivo
# [50] = Tmax in rat at 300 mg/kg, po; type: ADME, organism-based; parameters: dose 300 mg/kg, route oral; details: in vivo
# [51] = Tmax in Beagle dog at 0.5 mg/kg, po; type: ADME, organism-based, Canis lupus familiaris; parameters: dose 0.5 mg/kg, route oral; details: in vivo
# [52] = Tmax in Beagle dog at 5 mg/kg, po; type: ADME, organism-based, Canis lupus familiaris; parameters: dose 5 mg/kg, route oral; details: in vivo
# [53] = Bioavailability in rat at 300 mg/kg, po; type: ADME, organism-based; details: in vivo
# [54] = Bioavailability in portal cannulated Beagle dog at 1 mg/kg, po; type: ADME, organism-based, Canis lupus familiaris; details: in vivo
# [55] = Bioavailability in Beagle dog at 0.5 mg/kg, po; type: ADME, organism-based, Canis lupus familiaris; details: in vivo
# [56] = test system: Canis familiaris; experiment: Decrease in food intake in obese Beagle dog at 0.39 mg/kg, po after 3 months; type: functional, Canis lupus familiaris; parameters: scale not given: the % may be the effect or the level left
# [57] = Permeability from basolateral to apical side of the Caco-2 cell membrane at 10 uM in presence of calcium; type: ADME, cell-based; details: human
# [58] = target: Cytochrome P450 2C9 (Homo sapiens, UniProt P11712); experiment: Inhibition of CYP2C9; type: ADME
# [59] = target: Cytochrome P450 2D6 (Homo sapiens, UniProt P10635); experiment: Inhibition of CYP2D6; type: ADME
# Cytochrome P450 2D6, sequence (P10635 whole entry): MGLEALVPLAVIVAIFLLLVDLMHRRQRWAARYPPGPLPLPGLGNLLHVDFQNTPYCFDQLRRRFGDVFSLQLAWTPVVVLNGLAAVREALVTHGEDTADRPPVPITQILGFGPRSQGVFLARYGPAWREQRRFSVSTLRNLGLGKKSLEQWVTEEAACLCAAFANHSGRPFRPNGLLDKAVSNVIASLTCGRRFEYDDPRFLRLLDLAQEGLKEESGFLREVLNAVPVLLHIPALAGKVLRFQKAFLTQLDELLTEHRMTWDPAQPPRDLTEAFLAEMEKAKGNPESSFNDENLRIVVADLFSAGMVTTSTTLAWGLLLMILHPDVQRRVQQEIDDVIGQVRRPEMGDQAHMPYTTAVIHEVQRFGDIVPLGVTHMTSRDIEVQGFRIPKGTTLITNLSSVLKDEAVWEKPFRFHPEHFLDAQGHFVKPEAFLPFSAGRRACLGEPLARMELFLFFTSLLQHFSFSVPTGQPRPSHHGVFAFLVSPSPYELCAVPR
# Adenosine receptor A1 (Homo sapiens), sequence (P30542 whole entry): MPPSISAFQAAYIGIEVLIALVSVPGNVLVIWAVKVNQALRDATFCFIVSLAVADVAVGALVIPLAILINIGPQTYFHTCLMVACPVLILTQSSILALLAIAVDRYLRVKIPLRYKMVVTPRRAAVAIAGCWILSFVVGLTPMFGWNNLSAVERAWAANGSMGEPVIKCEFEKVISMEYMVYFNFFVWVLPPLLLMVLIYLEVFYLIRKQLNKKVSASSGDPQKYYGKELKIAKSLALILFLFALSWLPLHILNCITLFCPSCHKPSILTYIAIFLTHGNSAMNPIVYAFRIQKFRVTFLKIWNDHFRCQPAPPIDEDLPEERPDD
# D(1A) dopamine receptor (Homo sapiens), sequence (P21728 whole entry): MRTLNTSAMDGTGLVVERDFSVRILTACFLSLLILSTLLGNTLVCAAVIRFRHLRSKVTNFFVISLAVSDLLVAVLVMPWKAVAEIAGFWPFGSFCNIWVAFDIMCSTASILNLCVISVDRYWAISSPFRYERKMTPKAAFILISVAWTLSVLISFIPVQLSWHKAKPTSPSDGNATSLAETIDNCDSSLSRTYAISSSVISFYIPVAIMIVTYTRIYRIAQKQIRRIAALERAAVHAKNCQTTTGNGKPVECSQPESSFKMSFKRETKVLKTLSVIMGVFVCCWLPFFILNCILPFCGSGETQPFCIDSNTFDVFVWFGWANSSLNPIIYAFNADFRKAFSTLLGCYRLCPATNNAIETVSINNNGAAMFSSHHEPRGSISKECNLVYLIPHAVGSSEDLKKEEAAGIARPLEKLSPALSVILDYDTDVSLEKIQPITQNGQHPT
# Beta-1 adrenergic receptor (Homo sapiens), sequence (P08588 whole entry, looked up): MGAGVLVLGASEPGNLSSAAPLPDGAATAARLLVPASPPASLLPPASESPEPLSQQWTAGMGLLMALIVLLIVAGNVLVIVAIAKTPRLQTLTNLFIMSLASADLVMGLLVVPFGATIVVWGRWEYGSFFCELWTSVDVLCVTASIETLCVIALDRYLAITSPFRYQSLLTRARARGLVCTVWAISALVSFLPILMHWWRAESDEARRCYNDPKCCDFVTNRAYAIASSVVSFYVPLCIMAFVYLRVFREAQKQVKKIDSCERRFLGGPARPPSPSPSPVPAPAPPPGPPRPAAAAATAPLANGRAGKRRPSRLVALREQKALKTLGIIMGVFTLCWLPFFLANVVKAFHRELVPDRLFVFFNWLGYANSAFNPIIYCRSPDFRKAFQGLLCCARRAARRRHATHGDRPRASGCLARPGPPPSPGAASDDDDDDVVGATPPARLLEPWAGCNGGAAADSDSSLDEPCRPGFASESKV
# Histamine H2 receptor (Homo sapiens), sequence (P25021 whole entry): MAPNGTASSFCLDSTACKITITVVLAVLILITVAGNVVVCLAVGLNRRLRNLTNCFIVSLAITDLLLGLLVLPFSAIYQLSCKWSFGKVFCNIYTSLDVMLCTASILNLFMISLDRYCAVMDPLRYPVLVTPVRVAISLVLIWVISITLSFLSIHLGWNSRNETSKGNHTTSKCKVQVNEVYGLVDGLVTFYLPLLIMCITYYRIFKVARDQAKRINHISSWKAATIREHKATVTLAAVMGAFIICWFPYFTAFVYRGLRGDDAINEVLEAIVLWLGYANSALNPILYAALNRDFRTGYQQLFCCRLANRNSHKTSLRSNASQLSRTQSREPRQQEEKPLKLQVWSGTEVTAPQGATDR
# Adenosine receptor A3 (Homo sapiens), sequence (P0DMS8 whole entry): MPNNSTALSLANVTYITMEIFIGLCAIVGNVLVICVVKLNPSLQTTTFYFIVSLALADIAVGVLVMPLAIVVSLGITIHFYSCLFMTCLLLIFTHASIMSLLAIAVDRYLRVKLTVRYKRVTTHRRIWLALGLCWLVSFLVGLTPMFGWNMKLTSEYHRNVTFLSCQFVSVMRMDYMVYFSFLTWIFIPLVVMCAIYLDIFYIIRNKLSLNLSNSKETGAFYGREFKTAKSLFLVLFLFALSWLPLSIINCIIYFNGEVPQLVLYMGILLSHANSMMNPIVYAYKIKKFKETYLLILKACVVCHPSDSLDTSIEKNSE
# B2 bradykinin receptor (Homo sapiens), sequence (P30411 whole entry): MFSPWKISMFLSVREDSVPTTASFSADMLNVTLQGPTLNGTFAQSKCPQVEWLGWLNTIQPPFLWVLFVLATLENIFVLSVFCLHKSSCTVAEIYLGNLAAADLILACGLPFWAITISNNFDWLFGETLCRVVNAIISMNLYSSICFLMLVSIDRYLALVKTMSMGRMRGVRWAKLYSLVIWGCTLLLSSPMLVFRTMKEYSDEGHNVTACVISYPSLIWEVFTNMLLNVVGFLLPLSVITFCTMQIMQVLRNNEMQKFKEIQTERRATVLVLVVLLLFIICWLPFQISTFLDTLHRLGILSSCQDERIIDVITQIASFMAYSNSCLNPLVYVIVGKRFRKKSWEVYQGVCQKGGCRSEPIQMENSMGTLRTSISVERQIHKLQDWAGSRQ
# B1 bradykinin receptor (Homo sapiens), sequence (P46663 whole entry): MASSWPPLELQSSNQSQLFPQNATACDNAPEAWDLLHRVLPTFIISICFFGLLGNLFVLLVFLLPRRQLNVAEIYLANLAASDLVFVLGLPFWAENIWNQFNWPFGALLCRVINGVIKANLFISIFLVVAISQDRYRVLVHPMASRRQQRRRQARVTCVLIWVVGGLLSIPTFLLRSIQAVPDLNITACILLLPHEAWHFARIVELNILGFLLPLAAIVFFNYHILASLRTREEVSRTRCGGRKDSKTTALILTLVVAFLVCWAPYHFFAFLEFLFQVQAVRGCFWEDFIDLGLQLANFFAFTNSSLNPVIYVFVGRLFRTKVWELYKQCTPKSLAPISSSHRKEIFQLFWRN
# Cytochrome P450 2C9, sequence (P11712 whole entry): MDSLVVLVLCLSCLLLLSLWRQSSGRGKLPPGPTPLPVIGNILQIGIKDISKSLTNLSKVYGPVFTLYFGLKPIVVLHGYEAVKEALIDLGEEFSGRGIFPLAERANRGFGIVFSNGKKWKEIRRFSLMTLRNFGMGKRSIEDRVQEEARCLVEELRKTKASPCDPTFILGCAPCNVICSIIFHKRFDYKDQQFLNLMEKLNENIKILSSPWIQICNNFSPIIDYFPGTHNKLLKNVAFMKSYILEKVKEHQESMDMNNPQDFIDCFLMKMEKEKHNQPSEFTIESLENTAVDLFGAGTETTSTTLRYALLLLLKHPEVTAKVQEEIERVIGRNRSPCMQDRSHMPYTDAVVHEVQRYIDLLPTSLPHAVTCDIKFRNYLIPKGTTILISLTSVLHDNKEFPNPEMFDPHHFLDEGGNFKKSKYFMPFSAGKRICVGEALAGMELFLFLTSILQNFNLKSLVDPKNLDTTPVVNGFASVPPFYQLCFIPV
# 5-hydroxytryptamine receptor 4 (Homo sapiens), sequence (Q13639 whole entry): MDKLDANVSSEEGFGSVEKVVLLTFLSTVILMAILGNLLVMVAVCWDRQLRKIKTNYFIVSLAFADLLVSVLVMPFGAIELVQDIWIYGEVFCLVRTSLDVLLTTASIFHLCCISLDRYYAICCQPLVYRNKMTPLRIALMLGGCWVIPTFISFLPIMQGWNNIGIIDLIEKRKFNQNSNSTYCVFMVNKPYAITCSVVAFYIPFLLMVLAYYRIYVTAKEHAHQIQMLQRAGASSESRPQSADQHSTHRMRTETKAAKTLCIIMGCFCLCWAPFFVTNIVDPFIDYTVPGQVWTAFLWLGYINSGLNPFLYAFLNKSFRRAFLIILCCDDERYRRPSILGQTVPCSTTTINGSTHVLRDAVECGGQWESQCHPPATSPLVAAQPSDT
# Muscarinic acetylcholine receptor M2 (Homo sapiens), sequence (P08172 whole entry): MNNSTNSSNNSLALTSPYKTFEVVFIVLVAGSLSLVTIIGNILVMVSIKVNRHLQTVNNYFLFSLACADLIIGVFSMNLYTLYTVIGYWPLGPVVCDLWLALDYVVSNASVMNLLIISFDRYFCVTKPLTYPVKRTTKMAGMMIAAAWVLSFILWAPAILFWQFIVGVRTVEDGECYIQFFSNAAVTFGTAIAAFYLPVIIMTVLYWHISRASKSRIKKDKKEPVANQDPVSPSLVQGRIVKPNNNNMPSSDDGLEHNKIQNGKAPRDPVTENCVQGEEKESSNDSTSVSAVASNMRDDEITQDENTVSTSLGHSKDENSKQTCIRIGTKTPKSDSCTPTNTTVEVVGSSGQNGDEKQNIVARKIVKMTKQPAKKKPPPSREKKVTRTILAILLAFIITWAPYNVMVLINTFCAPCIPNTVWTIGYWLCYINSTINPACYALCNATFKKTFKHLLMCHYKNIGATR
# Platelet-activating factor receptor (Homo sapiens), sequence (P25105 whole entry): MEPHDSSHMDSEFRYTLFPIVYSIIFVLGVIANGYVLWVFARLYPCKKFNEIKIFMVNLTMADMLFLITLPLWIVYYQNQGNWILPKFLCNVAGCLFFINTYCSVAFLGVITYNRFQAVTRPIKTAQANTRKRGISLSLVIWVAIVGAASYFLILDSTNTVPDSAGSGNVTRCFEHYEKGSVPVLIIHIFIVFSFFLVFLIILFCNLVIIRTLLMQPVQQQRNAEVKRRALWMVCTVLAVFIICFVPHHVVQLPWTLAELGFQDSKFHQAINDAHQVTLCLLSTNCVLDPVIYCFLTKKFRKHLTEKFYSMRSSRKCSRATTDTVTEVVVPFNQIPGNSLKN
structure (smiles),measurement,setting,value
CN(Cc1ccccc1)C(=O)[C@@H](NC(=O)c1cc2cc(NC(=O)c3ccccc3-c3ccc(C(F)(F)F)cc3)ccc2n1C)c1ccccc1 [DIRLOTAPIDE],Activity,[1],inactive
same,Activity,[2],inactive
same,Papp A→B at 1 µM,[3],0.9 ×10⁻⁶ cm/s
same,Activity,[4],inactive
same,Activity,[5],inactive
same,Activity,[6],inactive
same,Activity,[7],inactive
same,Activity,[8],inactive
same,Activity,[9],inactive
same,Activity,[10],inactive
same,Activity,[11],inactive
same,Activity,[12],inactive
same,Activity,[13],inactive
same,Activity,[14],inactive
same,Activity,[15],inactive
same,Activity,[16],inactive
same,Activity,[17],inactive
same,Activity,[18],inactive
same,Activity,[19],inactive
same,Activity,[20],inactive
same,CLint scaled,[21],1090 mL/min/kg
same,half-life at 0.5 µM,[22],0.8 h
same,half-life at 0.5 µM,[23],6.15 h
same,half-life at 0.5 µM,[24],0.783 h
same,half-life at 0.5 µM,[25],1.17 h
same,half-life at 0.5 µM,[26],0.75 h
same,Fu,[27],0.032%
same,Fu,[28],0.0088%
same,blood plasma ratio,[29],0.64
same,blood plasma ratio,[30],0.54
same,ED25,[31],0.16 mg/kg
same,ED25,[32],6 mg/kg
same,clearance,[33],5.5 mL/min/kg
same,clearance,[34],12 mL/min/kg
same,Vd,[35],8 L/kg
same,Vd,[36],3.3 L/kg
same,Vd,[37],1 L/kg
same,half-life,[38],5.8 h
same,AUC(0-t),[39],51 ng·h/mL
same,AUC(0-inf),[40],55 ng·h/mL
same,AUC(0-inf),[41],530 ng·h/mL
same,AUC(0-inf),[42],2820 ng·h/mL
same,half-life,[43],5.9 h
same,AUC(0-inf),[44],40.7 ng·h/mL
same,AUC(0-inf),[45],663 ng·h/mL
same,Cmax,[46],21 ng/mL
same,Cmax,[47],31.1 ng/mL
same,Tmax,[48],2.1 h
same,Tmax,[49],2.8 h
same,Tmax,[50],6 h
same,Tmax,[51],3 h
same,Tmax,[52],3 h
same,bioavailability,[53],1%
same,bioavailability,[54],10.6%
same,bioavailability,[55],43%
same,Activity,[56],54%
same,Papp B→A at 10 µM,[57],0.3 ×10⁻⁶ cm/s
same,pIC50,[58],< 4.52
same,pIC50,[59],< 4.52
